{"source": "patent US20240341301A1", "about": "(The Regents of the University of Michigan, priority 2023, published 2024)", "key": {"murine donor hearts [1]": {"tested_on": "murine donor hearts", "experiment": "Murine ex-vivo heart perfusion after cold preservation", "parameters": "species or system mouse", "experimental": "(§1) Male and female WT or Irg1^−/− mice (Jackson laboratories, Bar Harbor, ME) were anesthetized intraperitoneally with 80 mg/kg ketamine and 5 mg/kg xylazine, anticoagulated with heparin (2,000 U/kg iv), and the heart was rapidly exposed through a sternal incision. The aorta was cannulated and retrograde perfused in-situ with HTK solution±HDAC inhibitors. After cannulation, the heart dissected free, the left atrium was opened. For 4-OI (Cayman Chemical, 25374) experiments, donor mice were treated 4-OI (dissolved in 40% β-Cyclodextrin, 50 mg/kg intraperitoneally) or vehicle control (40% β-Cyclodextrin intraperitoneally) 2 hours prior to donor heart procurement. After dissection, the heart was stored at 4° C. with HTK or HTK with VPA for a pre-designated duration. The hearts were then mounted on a Radnoti mouse Langendorff apparatus (ADInstruments inc., Colorado Springs, CO) in constant-pressure mode (˜70 mmHg) with a modified Krebs-Henseleit buffer (KHB; in mM: 118 NaCl, 4.7 KCl, 1.25 CaCl2), 1.66 MgSO4, 24.88 NaHCO3, 1.18 KH2PO4, 5.55 glucose, and 2.0 Na-pyruvate). A balloon was placed in the LV through the left atrium and left ventricular diastolic pressure was set to ˜8 mmHg at initiation. The heart was perfused with modified Krebs-Henseleit buffer for 30 min to stabilize and then hemodynamics measurements were recorded. Myocardial temperature was maintained at 37° C. LabChart software (ADInstruments inc., Colorado Springs, CO) was used to record ventricular function, perfusion pressures, cardiac chamber temperature and myocardial temperature. After perfusing the heart for 60 minutes, the heart was removed from the ex-vivo perfusion apparatus for specimen collection. Tissue was immediately placed in liquid N2 or treated with 4% formalin."}, "[2]": {"tested_on": "transplanted murine donor hearts", "experiment": "Murine heterotopic syngeneic heart transplantation", "format": "in vivo, mouse", "experimental": "(§2) Cardiac grafts procured from WT C57Bl/6J mice following arrest with cold (4° C.) HTK±VPA were transplanted into the right neck of sex-matched syngeneic C57BL/6J recipient mice following 16 hours of cold (4° C.) preservation in corresponding HTK±VPA solution as previously described (59). A cuff technique was used to connect the recipient right common carotid artery and right external jugular vein to the donor ascending aorta and pulmonary artery, respectively. Following reperfusion in the recipient, successful grafts were expected to resume a regular heartbeat. At 24 hours after reperfusion, the surgical incision was reopened and a small conductance catheter was introduced into the LV to measure contractility and relaxation.\nBlood from recipient mice was centrifuged at 3000 g in 4° C. for 10 minutes. Serum was aliquoted and snap-frozen. Serum cTnT, cTnI, TNFα, IL-6, IP10 and MIG concentrations were measured using Sigma-Aldrich MILLIPLEX kits (Cat. No.: MCYTMAG, MCVD2MAG). Pig arterial perfusate was centrifuged at 3000 g in 4° C. for 10 minutes. The abundance of cTnI, IL-1β, IL-6 and TNF-α was detected using Sigma MILLIPLEX kit (Cat. No.: MCVD2MAG, PCYTMAG)."}, "[3]": {"tested_on": "H3K9 and H3K27 histone acetylation", "experiment": "Histone acetylation Western blot in cold-preserved human donor hearts", "conditions": "HTK containing VPA, cold (4° C.) static preservation 8 h", "experimental": "Heart procurement for both human and pigs were performed as follows. A sternotomy is performed under general anesthesia. The pericardium is then opened to create a pericardial cradle for the heart. Heparin (300U/kg) administered through the right atrium or in a peripheral vein. After waiting 3 minute for adequate anticoagulation from heparin, a 9 Fr antegrade plegia infusion catheter is placed in the ascending aorta. Approximately 1 liter of autologous donor arterial blood is then collected into a collection bottle containing heparin. […] Subsequently, the ascending aorta is cross-clamped distal to the cardioplegia catheter and 1 liter of cold (4° C.) HTK solution is infused into the coronaries at a perfusion pressure of ˜80 mmHg to induce mechanical arrest. After excising the heart completely, it is transported to the back-table for infusion of 2 liters of HTK±VPA solution. After completion, the heart is stored in a solution identical to the perfusate at 4° C. on ice.\nPig hearts underwent ex-vivo perfusion after preservation for 4 or 10 hours. Approval for human heart procurement was obtained from the University of Michigan Institutional Review Board (HUM00131275). Human donor hearts from deceased brain death donors were procured as per standard clinical protocols from the Gift of Life Michigan (GOLM) organ procurement facility. […]"}, "IRG1 [4]": {"tested_on": "IRG1", "experiment": "IRG1 enhancer ChIP-qPCR and mRNA expression in human donor heart tissue", "experimental": "(§3) Pig hearts underwent ex-vivo perfusion after preservation for 4 or 10 hours. Approval for human heart procurement was obtained from the University of Michigan Institutional Review Board (HUM00131275). Human donor hearts from deceased brain death donors were procured as per standard clinical protocols from the Gift of Life Michigan (GOLM) organ procurement facility. Myocardial biopsies (˜5 mm^3) of LV were biopsied immediately after cardioplegic arrest (0 h) and after 8 hours (8 h) of cold storage in a cooler containing ice. […] Causes of death were stroke (n=4), trauma (n=2), drug overdose (n=1), and cardiac arrest (n=1). Heart tissue were either fixed in formalin or snap frozen in liquid N2 for later analysis."}, "murine hearts": {"tested_on": "murine hearts", "experiment": "Mass spectrometry metabolomics of preserved or transplanted murine hearts", "parameters": "species or system mouse", "experimental": "as §1, §2\n(§4) Metabolomics measurements were performed by the Michigan Regional Comprehensive Metabolomics Resource Core (Ann Arbor, MI, USA)."}, "human donor hearts": {"tested_on": "human donor hearts", "experiment": "Mass spectrometry metabolomics of cold-preserved human donor hearts", "experimental": "as §3, §4"}, "murine donor hearts [5]": {"tested_on": "murine donor hearts", "experiment": "Murine donor heart tissue staining and Western blot (oxidative stress, antioxidant proteins, cell death)", "parameters": "species or system mouse", "experimental": "as §1"}, "Irg1 [6]": {"tested_on": "Irg1", "experiment": "Irg1 mRNA transcript expression in preserved murine donor hearts", "parameters": "species or system mouse", "conditions": "16 hours preservation without reperfusion and during ex vivo perfusion", "experimental": "as §1"}, "[7]": {"conditions": "16 h cold preservation, 24 h reperfusion in recipient"}, "[8]": {"conditions": "recipient serum after transplantation"}, "[9]": {"conditions": "cold static preservation as well as transplantation"}, "[10]": {"conditions": "following murine heart transplantation"}, "[11]": {"conditions": "mice hearts during cardiac preservation"}, "[12]": {"conditions": "human hearts during cardiac preservation"}, "[13]": {"conditions": "16 hours preservation, ex-vivo perfusion"}, "[14]": {"conditions": "ex vivo perfused WT murine hearts"}}}
{"compound": "CCCC(CCC)C(=O)O", "note": "[VPA, 2-Propyl-pentanoic acid]", "values": [{"measurement": "ex vivo contractility", "setting": "murine donor hearts [1]; HTK±VPA, cold preservation up to 16 hours", "result": "improve"}, {"measurement": "cardioprotective effects of VPA with deficiency in Irg1", "setting": "murine donor hearts [1]; Irg1−/− hearts, ex vivo perfusion and syngeneic transplant models", "result": "reduced"}, {"measurement": "effect of conditional Irg1 deficiency in myeloid cells on VPA's cardioprotective effects on contractility or relaxation", "setting": "murine donor hearts [1]; LysM-Cre hearts, ex vivo perfusion model", "result": "did not impact"}, {"measurement": "VPA concentration with peak cardioprotective effect", "setting": "murine donor hearts [1]; titration 5, 10 and 20 mM in HTK, 16 hours preservation", "result": 10, "unit": "mM"}, {"measurement": "improvement of in vivo donor heart contractility (max dP/dt) compared to standard HTK solution alone", "setting": "[2]; [7]", "result": 265, "unit": "%"}, {"measurement": "improvement of in vivo donor heart relaxation (min dP/dt) compared to standard HTK solution alone", "setting": "[2]; [7]", "result": 250, "unit": "%"}, {"measurement": "cell death in transplanted heart tissue", "setting": "[2]; TUNEL", "result": "reduced"}, {"measurement": "serum concentration of IL-6", "setting": "[2]; [8]", "result": "reduced"}, {"measurement": "serum concentration of IP-10", "setting": "[2]; [8]", "result": "reduced"}, {"measurement": "serum concentration of MIG", "setting": "[2]; [8]", "result": "reduced"}, {"measurement": "serum concentration of TNFα", "setting": "[2]; [8]", "result": "reduced"}, {"measurement": "serum troponin I", "setting": "[2]; [8]", "result": "reduced"}, {"measurement": "serum troponin T", "setting": "[2]; [8]", "result": "reduced"}, {"measurement": "leukocyte infiltration", "setting": "[2]; transplanted heart tissue", "result": "reduced"}, {"measurement": "histone acetylation (H3K9, H3K27) after prolonged cardiac preservation", "setting": "[3]", "result": "maintained"}, {"measurement": "IRG1 enhancer activity (H3K27ac ChIP-qPCR)", "setting": "IRG1 [4]; 8-hours of preservation compared to HTK alone", "result": "increased"}, {"measurement": "IRG1 mRNA transcript expression", "setting": "IRG1 [4]; human hearts after preservation", "result": "increased"}, {"measurement": "itaconate", "setting": "murine hearts; [9]", "result": "increased"}, {"measurement": "succinate", "setting": "murine hearts; [9]", "result": "decreased"}, {"measurement": "fumarate", "setting": "murine hearts; [10]", "result": "increased"}, {"measurement": "glutamate", "setting": "murine hearts; [10]", "result": "decreased"}, {"measurement": "malate", "setting": "murine hearts; [10]", "result": "increased"}, {"measurement": "fumarate concentration in VPA-treated group", "setting": "murine hearts; [11]", "result": "29.0±7.5", "unit": "pmol/mg tissue"}, {"measurement": "itaconate concentration in VPA-treated group", "setting": "murine hearts; [11]", "result": "8.8±0.8", "unit": "pmol/mg tissue"}, {"measurement": "acetyl-CoA, citrate, α-ketoglutarate, fumarate, or malate abundance", "setting": "murine hearts; murine hearts during cold preservation", "result": "no changes"}, {"measurement": "decrease in itaconate during cold storage", "setting": "human donor hearts; cold preservation, HTK±VPA", "result": "limited"}, {"measurement": "succinate production", "setting": "human donor hearts; cold preservation, HTK±VPA", "result": "reduced"}, {"measurement": "fumarate concentration in VPA-treated group", "setting": "human donor hearts; [12]", "result": "43.5±6.6", "unit": "pmol/mg tissue"}, {"measurement": "itaconate concentration in VPA-treated group", "setting": "human donor hearts; [12]", "result": "8.0±1.0", "unit": "pmol/mg tissue"}, {"measurement": "overall oxidative stress (DHE staining)", "setting": "murine donor hearts [5]; [13]", "result": "decreased"}, {"measurement": "oxidative DNA damage (8OHdG staining)", "setting": "murine donor hearts [5]; [13]", "result": "decreased"}, {"measurement": "NRF2 nuclear translation effect", "setting": "murine donor hearts [5]; Irg1−/− hearts", "result": "greatly reduced"}, {"measurement": "benefit on TUNEL staining in α-actinin+ cardiomyocytes", "setting": "murine donor hearts [5]; Irg1−/− hearts", "result": "lost"}, {"measurement": "antioxidant protein expression", "setting": "murine donor hearts [5]; Irg1−/− murine hearts", "result": "no increase"}, {"measurement": "NRF2 nuclear translation from the cytoplasm", "setting": "murine donor hearts [5]; WT hearts", "result": "induced"}, {"measurement": "protein abundance of HO1", "setting": "murine donor hearts [5]; [14]", "result": "upregulated"}, {"measurement": "protein abundance of SOD1", "setting": "murine donor hearts [5]; [14]", "result": "upregulated"}, {"measurement": "protein abundance of SOD2", "setting": "murine donor hearts [5]; [14]", "result": "not"}, {"measurement": "protein abundance of total NRF2", "setting": "murine donor hearts [5]; [14]", "result": "upregulated"}, {"measurement": "ratio of reduced (GSH) versus oxidized glutathione (GSSG)", "setting": "murine donor hearts [5]; preserved and transplanted murine hearts", "result": "increased"}, {"measurement": "TUNEL staining in α-actinin+ cardiomyocytes", "setting": "murine donor hearts [5]; wild type hearts", "result": "reduced"}, {"measurement": "Irg1 transcript expression", "setting": "Irg1 [6]", "result": "increased"}]}
